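Assay format: 96-well plates, 48-hour exposure. GI50 = concentration required for 50% inhibition of growth. TGI is the concentration that stops growth completely.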

29 compounds from PubChem BioAssay (NCI) can be followed below.

The first assay relates to SNB-19 CNS. Put plainly: growth of human tumour cells (NCI), 48 h.
The compound `CC(=O)N(C)c1ccc(Nc2ccnc3ccc4nn(C)nc4c23)cc1` displayed a TGI of over 100 µM.

The compound `CN(C)CCNc1c([N+](=O)[O-])sc2ccc(Cl)cc12` showed a TGI of over 100 µM.

As for `S=c1[nH]nc(Cn2c3ccc(Br)cc3c3nc4ccccc4nc32)n1C1CCCCC1`, the TGI is over 96.7 µM.

`Oc1c(OCc2nnc(CCCCCCCCc3nnc(COc4ccc5ccccc5c4O)o3)o2)ccc2ccccc12` came in with a TGI of over 100 µM.

With `CCCCCCCCCCCCNC(=O)CCC(NC(=O)c1ccc(N(C)Cc2cnc3nc(N)nc(N)c3n2)cc1)C(=O)NCCCCCCCCCCCC` (stereo not given), the TGI is 72.1 µM.

As to `O=P(OCc1ccccc1)(OCc1ccccc1)C(O)/C=C/c1ccccc1` (stereo not given), the TGI was found to be 71.3 µM.

`NCCN(CCN(C(=O)Nc1ccccc1)c1ccccc1)C(=O)Nc1ccccc1` displayed a TGI of over 100 µM.

The compound `C[C@H](c1ccccc1)N1C(=O)[C@@H](OCc2ccccc2)[C@H]1[C@H](COC(=O)COCc1ccccc1)OCc1ccccc1` registered a TGI of over 100 µM.

Consider `O=C1CC(c2ccccc2Cl)C2(C(=O)NC(=O)NC2=O)C(c2ccccc2Cl)C1` (stereo not given), for which the TGI was over 100 µM.

`CCN(CCCCCCCCCCN1CC(=O)N(CCCCCCCCCCN(CC)Cc2ccccc2OC)CC1=O)Cc1ccccc1OC`: the GI50 is 3.18 µM and the TGI was determined as 10.5 µM.

In turn, `O=C1N/N=C\c2ccc(cc2)OCc2cccc(n2)COc2ccc(cc2)/C=N\NC1=O` gave a TGI of over 25 µM.

Turning to `CC1CCc2sc3nc4n(c(=O)c3c2C1)CC(C)S4` (stereo not given), the TGI worked out at 88.6 µM.

Regarding `N#Cc1nc(CCCN2C(=O)c3ccccc3C2=O)oc1N`, the TGI was over 100 µM.

As for `CC(=O)OC1CC2(O)C(CCC3(C)C(c4ccc(=O)oc4)CCC32O)C2(C)C1=CC(O)C1OC12` (stereo not given), the TGI worked out at 0.461 µM.

Compound `CN(C)CCCNc1cc(O)c2c(c1O)C(=O)c1ccccc1C2=O` yielded a TGI of 21.8 µM.

A further assay deals with SK-MEL-28 melanoma. Put plainly: growth of human tumour cells (NCI), 48 h.
For the compound `Cn1c2c(c3ccccc31)CCN1C(=O)C34CCCC3CC21S4` (stereo not given), the TGI is over 100 µM.

`Clc1ccc(OCc2nnc(COc3ccc(OCc4nnc(COc5ccc(Cl)cc5Cl)o4)c(Cl)c3)o2)c(Cl)c1` showed a TGI of over 100 µM.

`O=c1ccn(-c2ccccn2)c(=O)n1-c1ccccn1` returned a TGI of over 100 µM.

In turn, `O=C1NC(=S)NC(=O)C1C(c1ccc(Cl)cc1)C1C(=O)NC(=S)NC1=O` gave a TGI of over 100 µM.

As for `COC(=O)C1=C(C(=O)OC)SC(=C2SC3=C(SC(=C4SCCS4)S3)S2)S1`, the TGI is over 100 µM.

Take `CCC(=O)Nc1ccc(NS(=O)(=O)c2ccc(Cl)cc2)cc1`: the TGI was over 100 µM.

Take `c1c(N2CCOCC2)ssc1=[N+]1CCOCC1`: the TGI is over 100 µM.

`CC(C)(C)c1cc(/C=C2/NC(=O)NC2=O)cc(C(C)(C)C)c1O` registered a TGI of 32 µM.

Consider `COc1cccc(N2C(=O)CS(=O)(=O)C2c2cccc(Oc3ccccc3)c2)c1` (stereo not given), for which the TGI was over 100 µM.

`CCCO/N=[N+](\[O-])N(CC)CC`: the TGI is over 100 µM.

For `Cc1cnc2[nH]c(-c3cccc(F)c3)cc(=O)c2c1`, the TGI is over 100 µM.

On to `CC(=O)N(C)c1ccc(Nc2ccnc3ccc4nn(C)nc4c23)cc1`, for which the TGI is 73.1 µM.

As for `CN(C)CCNc1c([N+](=O)[O-])sc2ccc(Cl)cc12`, the TGI is over 100 µM.

In the case of `CCOC(=O)Cn1nnc2cc(Nc3c(C)[n+]([O-])c4cc(F)c(OCC)cc4[n+]3[O-])ccc21`, the TGI was over 100 µM.

As to `S=c1[nH]nc(Cn2c3ccc(Br)cc3c3nc4ccccc4nc32)n1C1CCCCC1`, the TGI is over 56.8 µM.

`COc1ccc2c(c1)-c1c(c3cc(OC)ccc3n1CCN(C)C)CC2` showed a TGI of 30.4 µM.

With `Oc1c(OCc2nnc(CCCCCCCCc3nnc(COc4ccc5ccccc5c4O)o3)o2)ccc2ccccc12`, the TGI is over 100 µM.

As for `CCCCCCCCCCCCNC(=O)CCC(NC(=O)c1ccc(N(C)Cc2cnc3nc(N)nc(N)c3n2)cc1)C(=O)NCCCCCCCCCCCC` (stereo not given), the TGI is over 100 µM.

Turning to `O=P(OCc1ccccc1)(OCc1ccccc1)C(O)/C=C/c1ccccc1` (stereo not given), the TGI was over 100 µM.

The compound `NCCN(CCN(C(=O)Nc1ccccc1)c1ccccc1)C(=O)Nc1ccccc1` had a TGI of 35.9 µM.

Regarding `C[C@H](c1ccccc1)N1C(=O)[C@@H](OCc2ccccc2)[C@H]1[C@H](COC(=O)COCc1ccccc1)OCc1ccccc1`, the TGI is over 100 µM.

Take `O=C1CC(c2ccccc2Cl)C2(C(=O)NC(=O)NC2=O)C(c2ccccc2Cl)C1` (stereo not given): the TGI was over 100 µM.

As for `CCN(CCCCCCCCCCN1CC(=O)N(CCCCCCCCCCN(CC)Cc2ccccc2OC)CC1=O)Cc1ccccc1OC`, the GI50 was 1.75 µM and the TGI worked out at 3.22 µM.

In the case of `O=C1N/N=C\c2ccc(cc2)OCc2cccc(n2)COc2ccc(cc2)/C=N\NC1=O`, the TGI was over 25 µM.

`CC1CCc2sc3nc4n(c(=O)c3c2C1)CC(C)S4` (stereo not given) displayed a TGI of 83.1 µM.

Compound `N#Cc1nc(CCCN2C(=O)c3ccccc3C2=O)oc1N` showed a TGI of over 100 µM.

The compound `CC(=O)OC1CC2(O)C(CCC3(C)C(c4ccc(=O)oc4)CCC32O)C2(C)C1=CC(O)C1OC12` (stereo not given) had a TGI of 0.592 µM.

The compound `CN(C)CCCNc1cc(O)c2c(c1O)C(=O)c1ccccc1C2=O` showed a TGI of 31 µM.

Regarding `O=c1c(-c2ccccc2)c(SCCN2CCCCCC2)n(-c2ccccc2)c(=S)n1-c1ccccc1`, the TGI was over 100 µM.

Another assay concerns CAKI-1 renal. Put plainly: growth of human tumour cells (NCI), 48 h.
With `Cn1c2c(c3ccccc31)CCN1C(=O)C34CCCC3CC21S4` (stereo not given), the TGI is over 100 µM.

Consider `Clc1ccc(OCc2nnc(COc3ccc(OCc4nnc(COc5ccc(Cl)cc5Cl)o4)c(Cl)c3)o2)c(Cl)c1`, for which the TGI stood at 54.9 µM.

`O=c1ccn(-c2ccccn2)c(=O)n1-c1ccccn1` showed a TGI of over 100 µM.

For `O=C1NC(=S)NC(=O)C1C(c1ccc(Cl)cc1)C1C(=O)NC(=S)NC1=O`, the TGI was over 100 µM.

`COC(=O)C1=C(C(=O)OC)SC(=C2SC3=C(SC(=C4SCCS4)S3)S2)S1`: the TGI was over 100 µM.

Regarding `CCC(=O)Nc1ccc(NS(=O)(=O)c2ccc(Cl)cc2)cc1`, the TGI was over 100 µM.

The compound `c1c(N2CCOCC2)ssc1=[N+]1CCOCC1` registered a TGI of over 100 µM.

In turn, `CC(C)(C)c1cc(/C=C2/NC(=O)NC2=O)cc(C(C)(C)C)c1O` displayed a TGI of 31.5 µM.

Compound `COc1cccc(N2C(=O)CS(=O)(=O)C2c2cccc(Oc3ccccc3)c2)c1` (stereo not given) yielded a TGI of over 100 µM.

The compound `Cc1cnc2[nH]c(-c3cccc(F)c3)cc(=O)c2c1` returned a TGI of over 100 µM.

Regarding `CC(=O)N(C)c1ccc(Nc2ccnc3ccc4nn(C)nc4c23)cc1`, the TGI was 30.5 µM.

On to `CCOC(=O)Cn1nnc2cc(Nc3c(C)[n+]([O-])c4cc(F)c(OCC)cc4[n+]3[O-])ccc21`, for which the TGI was over 100 µM.

As to `S=c1[nH]nc(Cn2c3ccc(Br)cc3c3nc4ccccc4nc32)n1C1CCCCC1`, the TGI was over 100 µM.

As to `COc1ccc2c(c1)-c1c(c3cc(OC)ccc3n1CCN(C)C)CC2`, the TGI was 28.8 µM.

`Oc1c(OCc2nnc(CCCCCCCCc3nnc(COc4ccc5ccccc5c4O)o3)o2)ccc2ccccc12` returned a TGI of over 100 µM.

The compound `O=P(OCc1ccccc1)(OCc1ccccc1)C(O)/C=C/c1ccccc1` (stereo not given) gave a TGI of 98.7 µM.

Consider `CCN(CCCCCCCCCCN1CC(=O)N(CCCCCCCCCCN(CC)Cc2ccccc2OC)CC1=O)Cc1ccccc1OC`, for which the GI50 was 1.57 µM and the TGI was 3.15 µM.

The compound `CC1CCc2sc3nc4n(c(=O)c3c2C1)CC(C)S4` (stereo not given) yielded a TGI of over 100 µM.
